Source: US7163800B2, “Methods of screening compositions for G protein-coupled receptor desensitization inhibitory activity” (Molecular Devices Corporation, priority 2000, dated 2007)
Each block holds one compound with its values, some of them ahead of it.

Legend:
[1] = target: HA-tagged human β2-adrenergic receptor (human) (UniProt P07550)
β2AR and V2R = settings: inhibitory activity shown for both β2AR and V2R
Text: Each of the fifteen compounds was separately screened for GPCR desensitization inhibitory activity against HA-tagged human β2-adrenergic receptor (β2AR) and against human vasopressin V2 receptor (V2R).
As indicated by the Fgrains values for the cells in the Basal and Stimulated control wells, the Fgrains value determined by the IN Cell Analyzer 3000 in this example was functionally a measure of the average extent of desensitization in the cells in each well.

[2] = target: human vasopressin V2 receptor (V2R) (Homo sapiens, UniProt P30518); assay: arrestin-GFP localization (Fgrains) assay in U20S-V2R/ArrGFP cells, arginine vasopressin stimulated; assay type: cell-based; settings: 100 nM arginine vasopressin
human vasopressin V2 receptor (V2R), sequence (P30518 whole entry): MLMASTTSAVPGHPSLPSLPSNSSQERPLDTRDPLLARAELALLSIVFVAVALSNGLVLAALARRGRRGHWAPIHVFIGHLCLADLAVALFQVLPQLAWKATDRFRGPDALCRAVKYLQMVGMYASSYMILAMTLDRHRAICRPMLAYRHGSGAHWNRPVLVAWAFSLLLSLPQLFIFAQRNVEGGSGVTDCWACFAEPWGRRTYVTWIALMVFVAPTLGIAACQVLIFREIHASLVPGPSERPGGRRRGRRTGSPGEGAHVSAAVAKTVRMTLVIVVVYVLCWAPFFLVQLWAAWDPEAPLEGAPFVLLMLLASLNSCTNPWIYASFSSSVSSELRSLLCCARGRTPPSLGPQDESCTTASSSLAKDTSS
Procedure: The assay was carried out using two different “double stable” human osteosarcoma cell (U20S) lines. […] The other cell line (U20S-V2R/ArrGFP) stably expressed V2R and the same arrestin-GFP conjugate.
The two cell lines (U20S-β2AR/ArrGFP and U20S-V2R/ArrGFP) were separately plated at 7000 cells/well on 384 well glass bottom plates. Two plates of U20S-β2AR/ArrGFP cells were prepared and two plates of U20S-V2R/ArrGFP cells were prepared.
Growth media was replaced with serum free media (i.e., Eagle's minimum essential medium (EMEM) buffered with 10 mM HEPES (N-2-Hydroxyethylpiperazine-N′-2-ethanesulfonic acid)) 24 hours after plating of the cells.
Each test compound was solvated using 100% dimethyl sulfoxide (DMSO). Multiple solutions of each compound were prepared at varying concentrations for testing in separate wells of each plate. If needed, the solutions were sonicated and heated to increase solubility. After preparation of the compound solutions, they were shielded from light.
Each of the solutions of varying concentrations of the fifteen compounds was added to a well on each of the four plates. The β2AR RT and V2R RT plates were incubated for 30 minutes at room temperature and atmospheric CO2.
Agonist was then added to each well. […] The β2AR RT and V2R RT plates were incubated for 30 minutes at room temperature and atmospheric CO2.
Each assay was then terminated using 1% paraformaldehyde containing 1 μM DRAQ5 DNA probe to fix the cells. The cells were analyzed using a pre-production model (alpha unit) of the IN Cell Analyzer 3000 (Amersham Biosciences), which is a line scanning, confocal imaging system. The IN Cell Analyzer 3000 was used to quantitate the localization of the arrestin-GFP conjugate for the cells in each well using the Amersham Biosciences granularity analysis GRNO algorithm. This algorithm finds the nucleus of cells and then dilates out a specified distance in which fluorescent spots or “grains” of arrestin-GFP localization are identified based on size and fluorescent intensity. The average of the fluorescent intensity of the identified grains per cell in an acquired image (i.e., Fgrains) was determined for each well on the plates.
The graphs for each compound as well as for the propanolol control are illustrated in FIGS. 7–22.
The curve-fitting program allowed the minimum and maximum values as well as the slope and EC50 values to vary rather than fixing the values to specified or collected values.

[3] = target: HA-tagged human β2-adrenergic receptor (β2AR) (Homo sapiens, UniProt P07550); assay: arrestin-GFP localization (Fgrains) assay in U20S-β2AR/ArrGFP cells, isoproterenol stimulated; settings: 100 nM isoproterenol
HA-tagged human β2-adrenergic receptor (β2AR), sequence (P07550 whole entry): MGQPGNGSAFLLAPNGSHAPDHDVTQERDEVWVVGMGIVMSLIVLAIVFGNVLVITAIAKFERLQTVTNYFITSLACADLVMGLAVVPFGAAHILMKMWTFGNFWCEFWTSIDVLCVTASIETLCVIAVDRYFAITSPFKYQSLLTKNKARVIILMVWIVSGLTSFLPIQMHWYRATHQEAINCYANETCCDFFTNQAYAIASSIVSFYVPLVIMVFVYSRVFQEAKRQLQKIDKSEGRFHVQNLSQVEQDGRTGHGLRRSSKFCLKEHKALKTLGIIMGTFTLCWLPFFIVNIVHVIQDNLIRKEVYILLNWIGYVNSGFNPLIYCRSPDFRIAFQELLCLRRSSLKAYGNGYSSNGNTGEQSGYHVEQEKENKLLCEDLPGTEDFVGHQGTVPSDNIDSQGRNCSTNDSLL
Procedure: Each of the fifteen compounds was separately screened for GPCR desensitization inhibitory activity against HA-tagged human β2-adrenergic receptor (β2AR) and against human vasopressin V2 receptor (V2R). In addition, the effects of temperature and carbon dioxide (CO2) were evaluated with respect to each compound.

[4] = V2R CO2 plate: 37° C., 5% CO2/95% O2
[5] = V2R RT plate: room temperature, atmospheric CO2
[6] = B2AR CO2 plate: 37° C., 5% CO2/95% O2
[7] = B2AR RT plate: room temperature, atmospheric CO2

Fgrains (average fluorescent intensity of identified grains of arrestin-GFP localization per cell), Stimulated against Basal control wells, B2AR CO2 plate [1]: 431 Fgrains
Compound: arrestin-GFP conjugate of the Renilla reniformis green fluorescent protein fused in frame to the carboxyl terminus of rat β-arrestin2 (from UniProt P29067)

Compound: Cn1cc(C2=C(c3cn(CCCN)c4ccccc34)C(=O)NC2=O)c2ccccc21 [RO-31-7549]
indication of non-receptor-specific GPCR desensitization inhibitory activity (β2AR and V2R): non-receptor-specific GPCR desensitization inhibitory activity | EC50 [2, 4]: 2.7 µM | Max Rsp (change between fitted maximum and fitted minimum Fgrains) [2, 4]: 357 | Min (fitted minimum Fgrains) [2, 4]: 240 | pEC50 [2, 4]: 5.6 | slope of concentration-response curve [2, 4]: 1.0 | EC50 [2, 5]: 3.3 µM | Max Rsp (change between fitted maximum and fitted minimum Fgrains) [2, 5]: 320 | Min (fitted minimum Fgrains) [2, 5]: 250 | pEC50 [2, 5]: 5.5 | slope of concentration-response curve [2, 5]: 1.5 | EC50 [3, 6]: 9.4 µM | Max Rsp (change between fitted maximum and fitted minimum Fgrains) [3, 6]: 243 | Min (fitted minimum Fgrains) [3, 6]: 193 | pEC50 [3, 6]: 5.0 | slope of concentration-response curve [3, 6]: 1.2 | EC50 [3, 7]: 31.1 µM | Max Rsp (change between fitted maximum and fitted minimum Fgrains) [3, 7]: 423 | Min (fitted minimum Fgrains) [3, 7]: 4 | pEC50 [3, 7]: 4.5 | slope of concentration-response curve [3, 7]: 0.8

Compound: C[n+]1cc2c3c(ccc2c2ccc4cc5c(cc4c21)OCO5)OCO3 [Sanguinarine Chloride (S5890), Sanguinarine Chloride]
indication of non-receptor-specific GPCR desensitization inhibitory activity (β2AR and V2R): non-receptor-specific GPCR desensitization inhibitory activity | Max Rsp (change between fitted maximum and fitted minimum Fgrains) [2, 4]: 546 | Min (fitted minimum Fgrains) [2, 4]: 27 | slope of concentration-response curve [2, 4]: 2.1 | Max Rsp (change between fitted maximum and fitted minimum Fgrains) [2, 5]: 533 | Min (fitted minimum Fgrains) [2, 5]: 27 | slope of concentration-response curve [2, 5]: 2.0 | Max Rsp (change between fitted maximum and fitted minimum Fgrains) [3, 6]: 312 | Min (fitted minimum Fgrains) [3, 6]: 108 | slope of concentration-response curve [3, 6]: 3.3 | Max Rsp (change between fitted maximum and fitted minimum Fgrains) [3, 7]: 340 | Min (fitted minimum Fgrains) [3, 7]: 61 | slope of concentration-response curve [3, 7]: 1.3 | EC50 ([3]; EC50, B2AR CO2 plate: 37° C., 5% CO2/95% O2): 7 µM | EC50 ([3]; EC50, B2AR RT plate: room temperature, atmospheric CO2): 7.7 µM
